From patent US9611252B2 (LifeSci Pharmaceuticals, Inc., priority 2013, dated 2017) come the findings set out here.

The structures appear in SMILES notation.

The target in assay [1] is kallikrein (Homo sapiens (Human), UniProt P03952). Nature of the assay: In vitro cellular assay (contact assay): kallikrein activity in ellagic acid-activated human plasma, substrate Z-FR-2-AMC. It is filed as biochemical. The conditions noted are these: human plasma activated with ellagic acid, Z-FR-2-AMC substrate, 37° C.; read-out: Contact Assay EC50. The protocol:
The ability of the compounds disclosed herein to inhibit cellular kallikrein activity was quantified and the respective EC50 value was determined.
All dilutions were prepared in an assay buffer comprising 50 mM Tris-HCl pH 7.2, 150 mM NaCl, and 0.01% Triton X-100.
The ten solutions of the test compounds, prepared by serial dilution, were further diluted 50-fold in the assay buffer.
Human plasma is thawed on ice and centrifuged for 15 min at 4° C. to remove platelets. A 1 mM stock solution of ellagic acid is diluted to 8 μM and mixed with human plasma, after removing platelets, at a ratio of 1:0.8.
A 22.5 μL volume of the final mixture of human plasma and ellagic acid was added to a 96-well microwell plate and the plate was incubated for 15 min at 37° C.
The CINH inhibitor at various concentrations, prepared by serial dilutions as described above, were added to the inhibitor control wells. […] Each CINH concentration is tested in duplicates.
The test compounds at various concentrations, also prepared by serial dilutions as described above, are added to the test wells. […] Each test compound concentration was tested in duplicates.
In addition to the inhibitor control and test wells, the 96 well assay plate includes positive control wells which contained the mixture of human plasma and ellagic acid without C1NH inhibitor or test compounds, and background wells which contained neither the mixture of human plasma and ellagic acid nor the test compounds. The total volume of liquid in positive control and background wells was brought up to 35 μL, using the assay buffer.
The assay plate containing C1NH inhibitors and test compounds mixed with human plasma and ellagic acid and appropriate controls was incubated at 37° C. for 5 min. […] The reagents were mixed well by shaking the plate gently for 30 sec.
The enzyme reaction was quantified by immediate kinetic reading of the assay plate using excitation/emission wavelengths of 330 nm/440 nm respectively. Fluorescence intensity was recorded for 60 min, using a time interval of 43 sec.
The inhibition activity of the test compounds were evaluated using the IC50 values, calculated according to the dose-response curve of the test compounds, fitted using the “log(inhibitor)-response (variable slope)” equation in GraphPadPrism software (GraphPad Software, Inc.).
The percentage inhibition was calculated using the following equation:
[formula] where, Mean(BG) is the average value of the fluorescence intensity of the background wells and Mean(PC) is the average value of the fluorescence intensity of the positive control wells.
Table 4 provides the EC50 values of various compounds disclosed herein.

Assay [2] concerns the target human Plasma Kallikrein (Homo sapiens (Human), UniProt P03952). Nature of the assay: In vitro enzyme inhibition of human plasma kallikrein (PFR-AMC cleavage). It is filed as biochemical. The conditions noted are these: human plasma kallikrein, Pro-Phe-Arg-AMC substrate, 37° C.; read-out: hPK IC50. Put shortly: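 Compound pre-incubated with human plasma kallikrein 5 min at 37° C in 50 mM Tris-HCl pH 7.5, 150 mM NaCl, 0.01% Triton X-100. Reaction started with PFR-AMC, cleavage read kinetically at 37° C every 43 s for 1 h.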

Sequence of kallikrein (P03952 20-638): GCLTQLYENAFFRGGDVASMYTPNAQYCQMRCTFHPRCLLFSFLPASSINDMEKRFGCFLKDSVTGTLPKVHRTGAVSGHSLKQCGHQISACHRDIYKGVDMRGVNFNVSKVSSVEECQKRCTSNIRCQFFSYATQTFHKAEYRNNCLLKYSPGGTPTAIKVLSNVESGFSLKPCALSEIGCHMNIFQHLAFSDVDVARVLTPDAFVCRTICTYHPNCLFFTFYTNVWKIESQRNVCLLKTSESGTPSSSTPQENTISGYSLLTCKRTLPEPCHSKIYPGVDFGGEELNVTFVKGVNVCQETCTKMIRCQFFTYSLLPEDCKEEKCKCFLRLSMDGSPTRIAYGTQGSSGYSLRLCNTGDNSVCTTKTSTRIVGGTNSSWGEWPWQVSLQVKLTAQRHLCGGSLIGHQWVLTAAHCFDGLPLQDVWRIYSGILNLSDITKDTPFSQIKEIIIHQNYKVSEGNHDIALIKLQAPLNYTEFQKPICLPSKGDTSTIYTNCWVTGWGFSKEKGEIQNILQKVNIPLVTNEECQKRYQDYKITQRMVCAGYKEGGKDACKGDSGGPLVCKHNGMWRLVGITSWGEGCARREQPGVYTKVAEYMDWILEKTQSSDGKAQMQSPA
Sequence of human Plasma Kallikrein (P03952 20-638): as above

`Cc1cnc2c(C(N)=O)cc(Cc3cc(C(=O)NCc4cc5c(Cl)c[nH]c5cc4F)ccn3)cc2c1` [Example 78, 6-((4-(((3-chloro-6-fluoro-1H-indol-5-yl)methyl)carbamoyl)pyridin-2-yl)methyl)-3-methylquinoline-8-carboxamide]: the EC50 in assay [1] was < 100 nM. Further, in assay [2], the IC50 is < 100 nM.
For the compound `Cc1cnc2c(C(N)=O)cc(Cc3cc(C(=O)NCc4ccc5c(N)nccc5c4)ccn3)cc2c1` [Example 79, 6-((4-(((1-aminoisoquinolin-6-yl)methyl)carbamoyl)pyridin-2-yl)methyl)-3-methylquinoline-8-carboxamide], in assay [1], the EC50 was < 100 nM. Also, the IC50 in assay [2] is < 100 nM.
Take `Cc1cnc2c(C(N)=O)cc(Cc3cc(C(=O)NCc4cnc5[nH]cc(Cl)c5c4)ccn3)cc2c1` [Example 80, 6-((4-(((3-chloro-1H-pyrrolo[2,3-b]pyridin-5-yl)methyl)carbamoyl)pyridin-2-yl)methyl)-3-methylquinoline-8-carboxamide]: the EC50 in assay [1] is < 100 nM. In assay [2], the IC50 is < 100 nM.
In the case of `Cc1cnc2c(C(N)=O)cc(Cc3cc(C(=O)NCc4ccc5[nH]cc(Cl)c5c4F)ccn3)cc2c1` [Example 81, 6-((4-(((3-chloro-4-fluoro-1H-indol-5-yl)methyl)carbamoyl)pyridin-2-yl)methyl)-3-methylquinoline-8-carboxamide], the EC50 in assay [1] was 100 to 1000 nM. For the same compound, the IC50 in assay [2] was < 100 nM.
Turning to `Cc1cnc2c(C(N)=O)cc(Cc3cc(C(=O)NCc4n[nH]c5ccc(Cl)cc45)ccn3)cc2c1` [Example 82, 6-((4-(((5-chloro-1H-indazol-3-yl)methyl)carbamoyl)pyridin-2-yl)methyl)-3-methylquinoline-8-carboxamide], the EC50 in assay [1] lay in the range of 100 to 1000 nM. The IC50 in assay [2] is < 100 nM.
Consider `Cc1cnc2c(C(N)=O)cc(Cc3cc(C(=O)NCc4cc5cc[nH]c5cc4F)ccn3)cc2c1` [Example 83, 6-((4-(((6-fluoro-1H-indol-5-yl)methyl)carbamoyl)pyridin-2-yl)methyl)-3-methylquinoline-8-carboxamide], for which the concentration giving a half-maximal response (EC50) in assay [1] is 100 to 1000 nM. The IC50 in assay [2] was < 100 nM.
In the case of `Cc1cnc2c(C(=O)O)cc(Cc3cc(C(=O)NCc4c(C)cc(N)nc4C)ccn3)cc2c1` [Example 84, 6-((4-(((6-amino-2,4-dimethylpyridin-3-yl)methyl)carbamoyl)pyridin-2-yl)methyl)-3-methylquinoline-8-carboxylic acid], the EC50 in assay [1] was < 100 nM. Also, the IC50 in assay [2] is < 100 nM.
For the compound `Cc1cc(N)nc(C)c1CNC(=O)c1ccnc(Cc2cc(F)c3ncc(Cl)cc3c2)c1` [Example 89, N-(6-amino-2,4-dimethyl-pyridin-3-ylmethyl)-2-(3-chloro-8-fluoro-quinolin-6-ylmethyl)-isonicotinamide], the concentration for a half-maximal effect (EC50) in assay [1] is < 100 nM. Further, the IC50 in assay [2] is < 100 nM.
Take `Cc1nc(N)ccc1CNC(=O)c1ccnc(Cc2cc(F)c3ncc(Cl)cc3c2)c1` [Example 91, N-(6-amino-2-methyl-pyridin-3-ylmethyl)-2-(3-chloro-8-fluoro-quinolin-6-ylmethyl)-isonicotinamide]: the concentration for a half-maximal effect (EC50) in assay [1] is < 100 nM. In assay [2], the IC50 was < 100 nM.
As to `Cc1cc(N)nc(C)c1CNC(=O)c1ccnc(Cc2cc(Cl)c3ncc(Cl)cc3c2)c1` [Example 100, N-((6-amino-2,4-dimethylpyridin-3-yl)methyl)-2-((3,8-dichloroquinolin-6-yl)methyl)isonicotinamide], the half-maximal effective concentration (EC50) in assay [1] is < 100 nM. Also, the IC50 in assay [2] is < 100 nM.
For the compound `Cc1ccc2cc(Cc3cc(C(=O)NCc4cc5c(Cl)c[nH]c5cc4F)ccn3)ccc2n1` [Example 110, N-((3-chloro-6-fluoro-1H-indol-5-yl)methyl)-2-((2-methylquinolin-6-yl)methyl)isonicotinamide], the EC50 in assay [1] lay in the range of 100 to 1000 nM. Further, the IC50 in assay [2] is < 100 nM.
On to `Cc1ccc2cc(Cc3cc(C(=O)NCc4ccc5c(N)nccc5c4)ccn3)ccc2n1` [Example 111, N-((1-aminoisoquinolin-6-yl)methyl)-2-((2-methylquinolin-6-yl)methyl)isonicotinamide], for which the EC50 in assay [1] lay within 100 to 1000 nM. Also, the half-inhibitory concentration (IC50) in assay [2] is < 100 nM.
For `Cc1ccc2cc(Cc3cc(C(=O)NCc4c(C)cc(N)nc4C)ccn3)ccc2n1` [Example 113, N-((6-amino-2,4-dimethylpyridin-3-yl)methyl)-2-((2-methylquinolin-6-yl)methyl)isonicotinamide], the EC50 in assay [1] was < 100 nM. Further, in assay [2], the IC50 was < 100 nM.
For the compound `Cc1ccc2ncc(Cc3cc(C(=O)NCc4c(C)cc(N)nc4C)ccn3)cc2c1` [Example 114, N-((6-amino-2,4-dimethylpyridin-3-yl)methyl)-2-((6-methylquinolin-3-yl)methyl)isonicotinamide], in assay [1], the EC50 was < 100 nM. Also, in assay [2], the IC50 was < 100 nM.
`Cc1ccc2ncc(Cc3cc(C(=O)NCc4ccc5c(N)nccc5c4)ccn3)cc2c1` [Example 115, N-((1-aminoisoquinolin-6-yl)methyl)-2-((6-methylquinolin-3-yl)methyl)isonicotinamide]: the concentration giving a half-maximal response (EC50) in assay [1] was < 100 nM. In addition, the IC50 in assay [2] is < 100 nM.
Regarding `Cc1ccc2ncc(Cc3cc(C(=O)NCc4cc5c(Cl)c[nH]c5cc4F)ccn3)cc2c1` [Example 116, N-((3-chloro-6-fluoro-1H-indol-5-yl)methyl)-2-((6-methylquinolin-3-yl)methyl) isonicotinamide], the EC50 in assay [1] fell in the range of 100 to 1000 nM. Further, the IC50 in assay [2] is < 100 nM.
Regarding `Cc1ccc2ncc(Cc3cc(C(=O)NCc4ccc(N)nc4C)ccn3)cc2c1` [Example 117, N-((6-amino-2-methylpyridin-3-yl)methyl)-2-((6-methylquinolin-3-yl)methyl)isonicotinamide], the EC50 in assay [1] lay in the range of 100 to 1000 nM. In addition, the IC50 in assay [2] was < 100 nM.
Regarding `Nc1nccc2cc(CNC(=O)c3ccnc(Cc4cnc5ccc(F)cc5c4)c3)ccc12` [Example 118, N-((1-aminoisoquinolin-6-yl)methyl)-2-((6-fluoroquinolin-3-yl)methyl)isonicotinamide], the half-maximal effective concentration (EC50) in assay [1] is < 100 nM. Further, the IC50 in assay [2] was < 100 nM.
As to `Cc1cc2cc(Cc3cc(C(=O)NCc4ccc5c(N)nccc5c4)ccn3)ccc2cn1` [Example 132, N-((1-aminoisoquinolin-6-yl)methyl)-2-((3-methylisoquinolin-6-yl)methyl)isonicotinamide], the EC50 in assay [1] lay in the range of 100 to 1000 nM. Besides, in assay [2], the IC50 is < 100 nM.
For `Cc1cnc2ccc(Cc3cc(C(=O)NCc4ccc5c(N)nccc5c4)ccn3)cc2c1` [Example 142, N-((1-aminoisoquinolin-6-yl)methyl)-2-((3-methylquinolin-6-yl)methyl)isonicotinamide] the same measures were < 100 nM and < 100 nM.
For the compound `Cc1cnc2ccc(Cc3cc(C(=O)NCc4cc5c(Cl)c[nH]c5cc4F)ccn3)cc2c1` [Example 143, N-((3-chloro-6-fluoro-1H-indol-5-yl)methyl)-2-((3-methylquinolin-6-yl)methyl)isonicotinamide], the EC50 in assay [1] lay within 100 to 1000 nM. Moreover, in assay [2], the IC50 is < 100 nM.
As to `Cc1cnc2ccc(Cc3cc(C(=O)NCc4c(C)cc(N)nc4C)ccn3)cc2c1` [Example 144, N-((6-amino-2,4-dimethylpyridin-3-yl)methyl)-2-((3-methylquinolin-6-yl)methyl)isonicotinamide], the EC50 in assay [1] is < 100 nM. In addition, in assay [2], the IC50 was < 100 nM.
For `Cc1cc2cc(Cc3cc(C(=O)NCc4c(C)cc(N)nc4C)ccn3)ccc2cn1` [Example 145, N-((6-amino-2,4-dimethylpyridin-3-yl)methyl)-2-((3-methylisoquinolin-6-yl)methyl)isonicotinamide], the EC50 in assay [1] is < 100 nM. The IC50 in assay [2] was < 100 nM.

By EC50 is commonly meant the concentration that produces a half-maximal response. As usually defined, the IC50 is the concentration that inhibits the measured activity by half.
